According to patent US5219825A, “Synergistic herbicidal compositions comprising herbicides which generate toxic oxygen radicals and chelating agents which inhibit their detoxification” (Yeda Research and Development Co., Ltd., priority 1986, dated 1993):

Tests used:
[1] = system: superoxide dismutase extracted from chloroplasts of Conyza bonariensis biotype requiring low levels of oxidant herbicide; assay: Inhibition of superoxide dismutase activity on gel; assay type: biochemical; conditions: gel soaked with 0.2% diethyldithiocarbamate
Procedure: (§1) Based on preliminary evidence that there was no difference in superoxides dismutase activity in whole leaves of these two biotypes and our own findings we assayed the levels of the dismutating enzymes in chloroplast extracts. The oxidant producing herbicides are effective in field conditions only in the light. […] This justifies assay of these enzymes in chloroplasts. Intact chloroplasts were isolated according to the method of Slovacek and Hind (Plant Physio. 60, 538 (1977)) except that 50 mM 2-(N-morpholino)ethanesulfonic acid buffer was used instead of the pyrophosphate buffer originally used in the chloroplast isolation medium. […] Chlorophyll content was measured in 80% acetone according to Arnon (Plant Physiol. 24 1 […]). Intactness of chloroplast was measured by means of ribulose-bis-phosphate-carboxylase activity in the chloroplast fraction supernatant according to Bjorkman (Physiol. Plant 21 1, (1968)), and proteins by the method of Bradford (Analyt. Biochem. 72 248 (1976)). […] We developed a technique to quantify superoxide dismutase by generating a standard curve by running different levels of known superoxide dismutase (ex bovine blood, Sigma) on the same gel. […] The gels were scanned in a Beckman DU-8 spectrophotometer, the peak areas were measured and related to the superoxide dismutase standard curve which was linear up to 0.2 enzyme units. […]

[2] = system: superoxide dismutase extracted from chloroplasts of Conyza bonariensis biotype requiring high levels of oxidant herbicide; assay: Inhibition of superoxide dismutase activity on gel; assay type: biochemical; conditions: gel soaked with 0.2% diethyldithiocarbamate
Procedure: as §1

[3] = system: Conyza bonariensis high herbicide requiring biotype; assay: Whole plant spray, visual rating; assay type: in vivo
Source text: (§2) Seeds of Conyza bonariensis were germinated and plants cultivated as outlined in Example 1. Other species were germinated in a similar mixture and treated at 10 days.
(§3) The commercial fungicides, maneb [manganese ethylene-bis(dithiocarbamate) (polymeric)] and zineb [zinc ethylene-bis (dithiocarbamate) (polymeric)] were used, they have similar structures and effects as DDC, but are blocked and act as chelate controls […] to clarify that a synergism would be due to the chelating effect of diethyldithiocarbamate. […] They could not chelate copper due to their being blocked.
(§4) ^a visual ratings (scored 1 day after treatment): 0 no damage to
(§5) slight burn; 1 moderate burn (may regenerate); 2 severe burn (will die)
(§6) Similarly, both the paraquat resistant and sensitive biotypes of Conyza bonariensis were treated with two other oxidant generating herbicides. Atrazine (of the triazine group) is the most widely used oxidant generating herbicides in agriculture. We used various dilutions of a commercial wettable powder (Atranex 50WP-Agan Chemicals) to which we added 0.5% DDC. The effects were scored 24 h later. […] We also tested to see whether acifluorfen, a nitro diphenyl ether herbicide would be synergized. It is generally agreed that light and oxygen are required for its action via oxidant damage. We sprayed a commercial formulation of acifluorfen (Blazer, Rohm and Haas) to which were added 0.25% Tween-20 detergent, with and without DDC. The effects were scored 24 h later.

[4] = system: Conyza bonariensis low herbicide requiring biotype; assay: Whole plant spray, visual rating; assay type: in vivo
Source text: as §2, §3, §4, §5, §6

[5] = system: isolated Asparagus sprengeri cells; assay: Chlorophyll loss in isolated cells (synergism at the cellular level); assay type: cell-based; conditions: for % of control chlorophyll: low light 305 μEin m^-2 s^-1
Procedure: Isolated cells offer an excellent rapid method of screening for phytotoxicity using a large number of potential chelators and synergists. Asparagus sprengeri cells were isolated from cladophylls of field grown plants using the procedure of Colman et al. (Can. J. Botany 57 1505, (1979)) except that the isolation, washing and culture buffer was 50 mM HEPES brought to pH 7.2 with KOH. The cladophylls were surface sterilized using 80% aqueous ethanol. After three centrifugations to remove broken cells, the cells were diluted to 10% packed volume and 0.75 ml were placed in each well of cluster dishes. The potential synergists in this example 0.02% w/v final concentration diethyldithiocarbamate (DDC) and an oxime of 4-octyl-2-acetyl-phenol (U.S. Pat. No. 4,215,219) which complex primarily with copper and di-2-ethylhexyl-phosphoric acid which complexes primarily with zinc (Flett, Chem and Ind. 17 706, (1977)) was placed with the herbicides atrazine and paraquat. All additions were made at 100 fold the final concentration of herbicide and synergist. Paraquat was dissolved in water and atrazine in methanol. The cluster dishes were incubated on a reciprocal shaker with a clear plastic bottom and illuminated from top and bottom with fluorescent lights emitting 135 μEin.m^-2 s^-1 (top) and 170 μEin.m^-2 s^-1 (bottom). The cells were kept mixed by the shaker and incubation was at room temperature. Incubation was stopped when there was visually obvious loss of chlorophyll due to treatments in a given experiment. The cells were removed to glass centrifugation tubes, centrifuged and the supernatant removed. One ml of 80% aqueous acetone was added to extract chlorophyll, the debris were sedimented by centrifugation and chlorophyll was spectrophotometrically determined at 645 and 663 nm according to Arnon (Plant Physiology 24 1, (1949)). […] In another experiment, a larger variety of chelating synergists and oxidant generating herbicides were used, and light was given at a much higher intensity 1000 μEin m^-2 s^-1 to better approach natural sunlight which is at 1200-1500 […].
Paraquat toxicity was measured 24 h after treatment and atrazine toxicity was measured 40 h after treatment.
Paraquat toxicity was measured 14 h after treatment.

Question: How did the “% inhibition of activity” value [1] turn out when CCN(CC)C(=S)[S-].[Na+] [DDC, Sodium diethyldithiocarbamate] was run?
Answer: The value was 100%.

Question: What about the “% inhibition of activity” value [2] of the same compound?
Answer: Its value is 100%.

Question: What about the visual ratings ([3]; atrazine 0 μM, DDC 0.5% alone, high herbicide requiring biotype, scored one day after treatment) of the same compound?
Answer: The visual ratings was 0.6.

Question: What about the visual ratings ([4]; atrazine 0 μM, DDC 0.5% alone, scored one day after treatment) of the same compound?
Answer: The visual ratings was 1.6.

Question: What about the “% of control chlorophyll” value ([5]; no herbicide, DDC 0.02% alone, atrazine series, 40 h) of the same compound?
Answer: Its value is 120 % of control.

Question: And the “% of control chlorophyll” value ([5]; no herbicide, DDC 0.02% alone, paraquat series, 24 h)?
Answer: Its value is 116 % of control.

Question: What does the source list for C[n+]1ccc(-c2cc[n+](C)cc2)cc1 [paraquat, 1,1'-dimethyl-4-4'bipyridium ion]?
Answer: effect of paraquat spray ([3]; 1 mM spray of paraquat, paraquat resistant biotype): hardly affected; visual rating ([3]; paraquat 1000 μM spray to run-off, DDC 0.75% W/V where added, high herbicide requiring biotype, scored 1 day after treatment): 0.9; visual rating ([4]; paraquat 30 μM spray to run-off, DDC 0.75% W/V where added, scored 1 day after treatment): 1.8; chlorophyll remaining - % of control ([5]; isolated cladophyll cells, 840 min): 56 % of control; chlorophyll remaining - % of control ([5]; paraquat 10 μM, Tetraethylene-pentamine 0.025% where added, 14 h, 1000 μEin m^-2 s^-1): 89 % of control; chlorophyll remaining - % of control ([5]; paraquat 20 μM, 4-Octyl-2-acetyl-phenol oxime 0.125% where added, 14 h, 1000 μEin m^-2 s^-1): 74 % of control; chlorophyll remaining - % of control ([5]; paraquat 20 μM, Pyridine-2,6-dicarboxylic acid 0.005% where added, 14 h, 1000 μEin m^-2 s^-1): 9 % of control; chlorophyll remaining - % of control ([5]; paraquat 20 μM, di-2-ethyl-hexyl-phosphoric acid 0.001% where added, 14 h, 1000 μEin m^-2 s^-1): 72 % of control; % of control chlorophyll ([5]; paraquat 10^-6, DDC 0.02% where added, 24 h, 1 µM): 107 % of control
